The values that follow come from patent US10245238B2, “Composition for oral intake” (THERAVALUES CORPORATION, priority 2014, dated 2019).

What is called Cmax is the highest concentration seen after dosing.

A short description of this data set: Oral absorbability of various complexes: curcumin concentration in blood plasma after forced oral administration. Type of data set: in vivo. The conditions noted are these: SD rats, curcumin dose 10 mg/kg. As for the experimental part:
(Oral Absorbability of Various Complexes)
For the test animal, 6-week old SD rats (male, body weight: 170 g to 260 g, Charles River Laboratories Japan, Inc.) were used.
In regard to the administration method, the various complexes (Examples 1 to 13) produced as described above were each added to water for injection in a predetermined amount, subsequently the mixture was made up to 20 mL so as to obtain a curcumin concentration of 1 mg/mL, the mixture was mixed using an ultrasonic generator, and the mixture was forcibly orally administered to test animals (n 3 or 5) that had been fasted for 12 hours or longer before administration, using a feeding needle, such that the curcumin dose would be 10 mg/kg (Administration Test Examples 1 to 13) or 50 mg/kg (Administration Test Example 14).
Meanwhile, the cases of administering curcumin base powder (Comparative Test Example 1); physical mixture obtained by simply physically mixing curcumin base powder and hydroxypropylmethyl cellulose powder or hydroxypropyl cellulose powder (curcumin:HPMC=1:3 or curcumin HPC=1:3) (Comparative Test Examples 2 and 3); or CR-031P powder (manufactured by Theravalues Corp.), which is a turmeric dye composition obtained by combining micronized curcuminoid with gum ghatti (Comparative Test Examples 4 and 5) was designated as controls.
For the measurement of the concentration of curcumin and/or an analog thereof in blood plasma, measurement was made by the following method, using heparinized blood plasma obtained by collecting about 0.5 mL of blood from the jugular vein of the test animals without anesthesia, after 30 minutes, 1 hour, and 2 hours from the initiation of administration.
100 μL of 0.1 M acetate buffer solution (pH 5.0) and 10 μL of β-glucuronidase solution (about 68,000 units/mL) were added to 20 μL of the collected blood plasma, and the mixture was maintained for 1 hour at 37° C. Subsequently, 10 μL of 50% (v/v) methanol including 20 ng/mL of mepronil, which was an internal standard liquid, and 0.5 mL of chloroform were added thereto, the mixture was stirred for 1 minute using a vortex mixer, and then the mixture was mixed for 15 minutes using an ultrasonic generator. An extraction-treated liquid thus prepared was separated into chloroform layer and an aqueous layer by centrifugation (13,000×g, for 5 minutes, at room temperature). This extraction treatment was repeated two times. Subsequently, the chloroform layer was collected, and the solvent was distilled off from this layer using a vacuum centrifugal concentrator to solid-dry the chloroform layer. 100 μL of 50% (v/v) methanol was added thereto, and then the mixture was centrifuged (13,000×g, for 5 minutes, at room temperature) to collect the supernatant.
2 μL of the supernatant produced as described above was subjected to an analysis using LC-MS/MS (manufactured by Shimadzu Corp.), and thereby the curcumin concentration in the blood plasma was measured. The conditions for the LC-MS/MS analysis were set such that the LC column was ATLANTIS T3 (2.1×150 mm, 3 μm, manufactured by Waters Corp.), the column temperature was 40° C., the flow rate was 0.2 mL/min, and the mobile phase included A: 0.1% aqueous solution of formic acid, and B: 0.1% formic acid/acetonitrile, and gradient elution was performed under the following conditions. […]

Each structure is given as a SMILES string.

Under “0 to 2 h”, `COc1cc(/C=C/C(=O)/C=C(O)/C=C/c2ccc(O)c(OC)c2)ccc1O` [Curcumin base powder, curcumin] showed an AUC of 33.9 ng/mL · 0-2 h. The compound further yielded a Cmax (male, rat, plasma) of 49.8 ng/mL. In addition, the concentration at 0.5 h (male, rat, plasma, 0.5 h after administration) is 7.8 ng/mL. Under “male, rat, plasma, 1 h after administration”, this compound displayed a concentration at 1 h of 17.2 ng/mL. For the same compound, the concentration at 2 h (male, rat, plasma, 2 h after administration) is 34.2 ng/mL.
